According to paper PMC12676312, “Evaluation of Antiviral Activity of N‑Phenyl-2-Phenoxyacetamides Derived from Carvacrol against Mayaro Virus: In Vitro Analyses and In Silico Insights” (ACS Omega, 2025):

Experiments:
[1] = tested on: Mayaro virus (MAYV); format: cell-based, Mayaro virus (ATCC VR 66, strain TR 4675); details: Vero cells infected with MAYV (MOI 1) pre-treated 1 h with compound at its CC50-based concentration or 500 μM; 48 h; MTT; infected control 0%, uninfected 100%
Procedure: Vero cells (ATCC CCL-81) were used in all in vitro assays. Cells were cultured in DMEM medium supplemented with 2% fetal bovine serum (FBS), penicillin, and streptomycin, and incubated at a constant temperature of 37 °C under a controlled atmosphere of 5% CO2. Mayaro virus (ATCC VR 66, strain TR 4675) was initially propagated in C6/36 cells cultured in L-15 medium supplemented with 2% FBS, incubated at 28 °C. For viral titer determination, Vero cells (10^5 cells/well) were seeded in 24-well plates and cultured for approximately 24 h to achieve 80% confluence. Subsequently, the culture medium was replaced with 10-fold serial dilutions of the viral aliquot. The plate was maintained under constant agitation for 1 h to facilitate viral adsorption. The medium was then replaced with a semisolid medium (incomplete DMEM and 1% carboxymethylcellulose at a 2:1 ratio). Plates were incubated for 48 h under the aforementioned conditions, and cytopathic effects were monitored. After this period, cells were fixed with 10% formaldehyde and stained with 5% crystal violet solution for plaque counting. The mean number of plaques was used to determine the number of plaque-forming units (PFU), and the viral titer was expressed as PFU/mL.
To evaluate the antiviral potential of the molecules under study, an MTT (3-(4,5-dimethylthiazol-2-yl)-2,5-diphenyltetrazolium bromide) reduction assay was employed. Vero cells were seeded in 96-well plates (10^4 cells/well) and cultured until reaching approximately 80% confluence. […] For compounds with undetermined CC50 values, a concentration of 500 μM (the highest concentration tested in the previous study) was used. After incubation, the viral suspension was removed, DMEM medium was added, and cells were incubated for 48 h at 37 °C under a 5% CO2 atmosphere. Cell viability was determined by absorbance reading at 540 nm after solubilization of formazan crystals with DMSO, with the positive control (Vero cells infected with MAYV) defined as 0% cell viability and the negative control (uninfected Vero cells) defined as 100% cell viability. The compound providing the greatest cellular protection was selected for subsequent assays.

[2] = tested on: Vero cells; design: method as in previous study of our group; details: ref previous study of our group; cited from earlier work
[3] = tested on: Mayaro virus (MAYV); test: Virucidal assay (plaque reduction); format: cell-based, Mayaro virus (ATCC VR 66, strain TR 4675); details: Vero cells
Procedure: To determine the action of the molecule on viral particles, Vero cells cultured in 24-well plates (10^5 cells/well) at 80% confluence were infected with MAYV (100 PFU/well) previously incubated for 1 h with different concentrations of the compound at 37 °C (100 μL/well). Plates were maintained under agitation for 1 h, and afterward, the viral suspension was replaced with 1 mL of semisolid medium (DMEM + 1% carboxymethylcellulose). Plates were incubated for 48 h at 37 °C and 5% CO2 and subsequently fixed with 10% formaldehyde followed by staining with 5% crystal violet solution for plaque counting. DMEM was used as the negative control, and 100 PFU of untreated MAYV was used as the positive control.

[4] = tested on: Mayaro virus (MAYV); test: Pretreatment assay (plaque reduction); format: cell-based, Mayaro virus (ATCC VR 66, strain TR 4675); details: Vero cells pretreated 3 h with different concentrations, then infected
Procedure: To determine whether the compound exerts a protective effect on cells prior to viral infection, Vero cells cultured in 24-well plates (10^5 cells/well) were treated for 3 h at 37 °C with 100 μL of the compound at different concentrations, with periodic agitation. Subsequently, the medium was replaced with 100 μL of a solution containing MAYV (100 PFU), and the plates were incubated under constant agitation for 1 h. The viral suspension was then replaced with a semisolid medium (DMEM + 1% carboxymethylcellulose), and the plates were incubated for 48 h at 37 °C under a 5% CO2 atmosphere. Cells were fixed with 10% formaldehyde and stained with 5% crystal violet solution for plaque counting. DMEM was used as the negative control, and 100 PFU of MAYV was used as the positive control (untreated).

[5] = tested on: Mayaro virus (MAYV); test: Adsorption inhibition assay (plaque reduction); format: cell-based, Mayaro virus (ATCC VR 66, strain TR 4675); details: 4 °C for 2 h, Vero cells, read-out: Decrease in the number of lysis plaques (adsorption inhibition)
Procedure: To assess whether the compound interferes with the viral adsorption step, 24-well plates (10^5 cells/well) were cooled at 4 °C for 30 min. The culture medium was removed, and cells were washed with cold PBS, followed by the addition of 100 μL of a solution containing MAYV (100 PFU) and different concentrations of the compound. Cells were incubated at 4 °C for 2 h and subsequently washed with cold citrate buffer (0.1 M citric acid and 0.1 M sodium citrate) and PBS. Semisolid medium (DMEM + 1% carboxymethylcellulose) was then added, and plates were incubated at 37 °C for 48 h. Cells were fixed and stained for plaque counting as previously described. DMEM was used as the negative control, and 100 PFU of MAYV served as the positive control (untreated).

[6] = tested on: Mayaro virus (MAYV); test: Internalization inhibition assay (plaque reduction); format: cell-based, Mayaro virus (ATCC VR 66, strain TR 4675); details: concentrations between 500 μM and 62.5 μM; Vero cells
Procedure: To evaluate whether the compound affects the internalization step, 24-well plates (10^5 cells/well) were cooled at 4 °C for 30 min. The culture medium was removed, and cells were incubated with MAYV (100 PFU/well) at 4 °C for 2 h. Cells were washed with cold PBS, and 1 mL of DMEM was added followed by incubation for 5 min at 37 °C. Subsequently, different concentrations of the compound were added and incubated for 1 h at 37 °C. Cells were then washed with cold PBS and citrate buffer. Finally, semisolid medium (DMEM + 1% carboxymethylcellulose) was added, and plates were incubated at 37 °C for 48 h. Cells were fixed and stained for plaque counting. DMEM was used as the negative control, and 100 PFU of MAYV was used as the positive control (untreated).

[7] = tested on: Mayaro virus (MAYV); test: Post-treatment assay (plaque reduction); format: cell-based, Mayaro virus (ATCC VR 66, strain TR 4675); details: Vero cells treated after MAYV infection, any tested concentration
Procedure: To determine whether the compound acts after viral infection, Vero cells cultured in 24-well plates (10^5 cells/well) were initially infected with 100 μL of MAYV (100 PFU) and incubated under constant agitation for 1 h. The viral suspension was removed and replaced with 100 μL of the compound at different concentrations, followed by incubation for 3 h at 37 °C with periodic agitation. Subsequently, the medium was replaced with semisolid medium (DMEM + 1% carboxymethylcellulose). After 48 h of incubation at 37 °C and 5% CO2, the cells were fixed with 10% formaldehyde and stained with 5% crystal violet for plaque counting. For the negative control, DMEM was used, and for the positive control, 100 PFU of MAYV (untreated).

[8] = tested on: MAYV; design: method as in Langedries et al.; details: Vero cells; ref Langedries et al.; cited from earlier work

| Compound | Antiviral screening (cell viability %) [1] | CC50 [2] | also measured |
| --- | --- | --- | --- |
| Cc1ccc(C(C)C)cc1OCC(=O)Nc1ccccc1Cl [Compound 1] | 62.5% | 200 µM | – |
| Cc1ccc(C(C)C)cc1OCC(=O)Nc1ccc(Cl)cc1 [Compound 3] | 0% | 449 µM | – |
| Cc1ccc(C(C)C)cc1OCC(=O)Nc1ccccc1Br [Compound 4] | 0% | 372 µM | – |
| Cc1ccc(C(C)C)cc1OCC(=O)Nc1cccc(Br)c1 [Compound 5] | 50.0% | > 500 µM | – |
| Cc1ccc(C(C)C)cc1OCC(=O)Nc1ccc(Br)cc1 [Compound 6] | 0% | 182 µM | – |
| Cc1ccc(C(C)C)cc1OCC(=O)Nc1ccccc1F [Compound 7] | 22.83% | > 500 µM | – |
| Cc1ccc(C(C)C)cc1OCC(=O)Nc1ccc(F)cc1 [Compound 9] | – | > 500 µM | Reduction in the number of lysis plaques (virucidal activity) ([3]; 500 μM, MAYV pre-incubated 1 h with compound): approximately 40%; Virucidal activity (number of lysis plaques) ([3]; concentrations ranging from 500 μM to 31.25 μM): significant reduction in the number of lysis plaques; Number of lysis plaques, pretreatment of cells [4]: No reduction in the number of lysis plaques; inhibition at 500 µM [5]: ~58%; Reduction in the number of lysis plaques (internalization inhibition) [6]: about 50%; Viral activity, post-treatment [7]: no reduction in viral activity |
| Cc1ccc(C(C)C)cc1OCC(=O)Nc1ccccc1 [Compound 10] | 0% | > 500 µM | – |
| NC(=O)c1ncn([C@@H]2O[C@H](CO)[C@@H](O)[C@H]2O)n1 [ribavirin] | – | – | Antiviral activity against MAYV [8]: no antiviral activity |
